Measurements taken from PubChem BioAssay (NCI).
“And” between values parts separate entries of the source, which are not always exact repeats. Equal entries are not always repeated.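 A five-concentration, 48-hour dose response in 96-well plates underlies each endpoint, interpolated linearly between surrounding concentrations. GI50: concentration for 50% inhibition of growth. Definition used: TGI = concentration required for complete inhibition of growth.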

Tests used:
Experiment in all cases: NCI tumour cell line growth inhibition, 48 h
A549 NSCLC = test system: A549 NSCLC
BT-549 breast = test system: BT-549 breast
CAKI-1 renal = test system: CAKI-1 renal
DU-145 prostate = test system: DU-145 prostate
EKVX NSCLC = test system: EKVX NSCLC
MALME-3M melanoma = test system: MALME-3M melanoma
OVCAR-3 ovarian = test system: OVCAR-3 ovarian
OVCAR-5 ovarian = test system: OVCAR-5 ovarian
OVCAR-8 ovarian = test system: OVCAR-8 ovarian
SN12C renal = test system: SN12C renal

Structure (SMILES)	GI50 (A549 NSCLC)	TGI (A549 NSCLC) [µM]	GI50 (BT-549 breast) [µM]	TGI (BT-549 breast) [µM]	GI50 (CAKI-1 renal)	TGI (CAKI-1 renal)	GI50 (DU-145 prostate) [µM]	TGI (DU-145 prostate) [µM]	GI50 (EKVX NSCLC)	TGI (EKVX NSCLC)	GI50 (MALME-3M melanoma)	TGI (MALME-3M melanoma)	GI50 (OVCAR-3 ovarian)	TGI (OVCAR-3 ovarian)	GI50 (OVCAR-5 ovarian)	TGI (OVCAR-5 ovarian)	GI50 (OVCAR-8 ovarian)	TGI (OVCAR-8 ovarian) [µM]	GI50 (SN12C renal)	TGI (SN12C renal)
COc1cc(/C=C/C(=O)c2cc(OC)c(OC)c(OC)c2)cc(OC)c1OC	3.74 µM	46.1	2.48	9.26	1.23 µM	3.87 µM	2.03	5.95	2.63 µM	21.5 µM	2.48 µM	19.6 µM	1.91 µM	4.21 µM	5.68 µM	20.1 µM	3.49 µM	> 100	4.02 µM	20.8 µM
Oc1ccc(SCc2ccc(NCc3ccccc3)cc2)cc1	–	56.7	–	> 100	–	> 100 µM	–	> 100	–	50.3 µM	–	> 100 µM	–	> 100 µM	–	69.3 µM	–	> 100	–	64.6 µM
COc1cccc2c(Nc3ccc(C(=O)NCCN(C)C)cc3)cc(-c3ccccc3)nc12	16 µM	33.1	20.3	44.8	27.8 µM	55.3 µM	16.4	33	27 µM	81.4 µM	20 µM	40.2 µM	25.6 µM	54.1 µM	23.7 µM	50.6 µM	17.3 µM	42.7	16.1 µM	36.4 µM
COc1ccc(Cn2cc(Cn3c(=O)c(-c4nc5ccccc5[nH]4)cc4ccccc43)nn2)c(OC)c1OC	0.213 µM and 0.477 µM	–	0.502	1.52	0.35 µM and 0.396 µM	1.47 µM and 3.92 µM	0.22	0.769	0.904 µM and 0.605 µM	50 µM and > 100 µM	0.139 µM and 0.42 µM	0.985 µM and 2.8 µM	0.165 µM and 0.292 µM	0.633 µM and 1.19 µM	0.201 µM and 0.329 µM	1.23 µM and 1.53 µM	0.213 µM and 0.486 µM	–	0.217 µM and 0.426 µM	50 µM and > 100 µM
CN1CCN(c2cc(Nc3cc(C4CC4)[nH]n3)nc(Nc3ccc(CC(=O)NCc4cccc(F)c4)cc3)n2)CC1	0.77 µM	11.3	2.96	19.9	0.823 µM	4.74 µM	2.03	11.5	3.41 µM	32.4 µM	0.496 µM	4.55 µM	1.59 µM	16.5 µM	0.432 µM	15.8 µM	2.18 µM	30.1	0.756 µM	14.4 µM
COc1ccc2sc3c(NCCCNCCO)nc4ccccc4c3c(=O)c2c1	1.68 µM	3.31	10.2	22.7	1.57 µM	2.99 µM	1.6	2.98	1.45 µM	2.94 µM	1.69 µM	3.26 µM	1.74 µM	3.21 µM	1.6 µM	3.05 µM	1.65 µM	3.45	1.6 µM	3.12 µM
NCC(=O)CCC(=O)O	> 100 µM	> 100	> 100	> 100	> 100 µM	> 100 µM	> 100	> 100	> 100 µM	> 100 µM	> 100 µM	> 100 µM	> 100 µM	> 100 µM	> 100 µM	> 100 µM	> 100 µM	> 100	> 100 µM	> 100 µM
CCCCc1nc2cc(/C=C/C(=O)NO)ccc2n1CCN(CC)CC	0.318 µM	2.4	1.98	38.2	0.237 µM	0.943 µM	0.302	4.64	0.387 µM	> 100 µM	0.153 µM	22.2 µM	0.363 µM	1.83 µM	0.13 µM	1.4 µM	0.104 µM	5.54	0.489 µM	30.1 µM
O=C1C(=O)c2c(nc3ncccn23)-c2ccccc21	0.23 µM	0.516	0.154	0.291	0.64 µM	1.9 µM	0.181	0.336	0.396 µM	0.954 µM	0.169 µM	0.307 µM	0.204 µM	0.5 µM	0.397 µM	0.852 µM	0.306 µM	1.27	0.173 µM	0.325 µM
CC(C)(C)c1nnc2n(c1=O)N=CC(c1ccc(Br)cc1)S2 (stereo not drawn)	43 µM	> 100	24.3	74.7	24.7 µM	62.5 µM	29.3	> 100	22.7 µM	66.7 µM	26.9 µM	79.7 µM	21.8 µM	70.8 µM	42.2 µM	> 100 µM	34.7 µM	> 100	27.7 µM	57.2 µM
Cc1[nH]nc(C(=O)Nc2n[nH]c3ccccc23)c1[N+](=O)[O-]	> 66.6 µM	> 100	26.5	> 100	> 100 µM	> 100 µM	> 79.7	> 100	> 100 µM	> 100 µM	> 100 µM	> 100 µM	> 100 µM	> 100 µM	> 100 µM	> 100 µM	> 100 µM	> 100	> 100 µM	> 100 µM
